Entries after “also recorded” stand apart in the source; their conditions may differ.

The subject of series [1] is bactéries. The experiment in a line: Toxicity of the substrates towards the bacteria in the agar test. The series is classed as cell-based. The following applies: substrate in agar 10 to 300 µg/ml, high concentration = 300 µg/ml. The protocol: (§1) Tous les substrats (composés 10c, 10d et […]) sont incorporés à la gélose à différentes concentrations couvrant une gamme de 10 à 300µg/ml.
(§2) Les composés sont préalablement dissous dans le DMSO et dilués dans de l'eau bi-distillée pour constituer des solutions mères à 800µg/ml, qui peuvent être conservées au moins une semaine à +4°C. Les solutions mères sont diluées ensuite pour délivrer les paliers de concentrations définis à 10, 50, 100, 200 et 300µg/ml.
(§3) Ces substrats sont ajoutés à la gélose à 45°C (une température de 85°C fut tolérée par les substrats), préalablement tamponnée à pH=7 et stérilisée par autoclavage. Les boîtes de gélose sont ensuite ensemencées d'une suspension de colonies, stérilement, à l'öse de platine par stries transversales et selon la méthode des quadrants. L'incubation est poursuivie durant une nuit à 37°C.
(§4) Pour chaque concentration on réalise un banc sans colonies et pour chaque type bactérien, un contrôle de culture sans substrat, de sorte que l'on ne puisse observer que les effets de la présence simultanée des colonies et du substrat incorporé à la gélose.

The subject of series [2] is Enterococcus faecalis. Briefly: Agar test with incorporated fluorogenic substrates (L-alanine aminoaryl peptidase activity), fluorescence of colonies. The series is classed as cell-based. The following applies: Gram +, substrate in agar 10 to 300 µg/ml, pH 7, overnight at 37°C, UV 365 nm.
Description: (§5) Cette différenciation fait appel à une méthode spécifique de discrimination optique des bactéries à coloration de Gram(+) ou Gram(-), qui est réalisée par l'utilisation de substrats fluorogénes de la L-alanine amino arylpeptidase, activité enzymatique retrouvée principalement dans la paroi des bactéries à coloration de Gram(-), comme il est décrit par Cerny G dans European Journal of Applied Microbiology, 1976, 3, p. 223-225, et 1978 5, p. 113-122.
(§6) Dans cet exemple, on utilise cette méthode de détection des activités enzymatiques bactériennes de la L-alanine aminoaryl peptidase avec les substrats fluorogènes S107, S108 et S109 utilisant les composés 10e, 10c et 10d des exemples 15, 13 et 14. Ces substrats sont incorporés à la gélose selon la méthode énoncée par Manafi & Kneifel dans Journal of Applied Bacteriology 1990, 69, p. 822-827.
as §1, §2, §3, §4
(§7) La révélation des bactéries Gram(-), rendues fluorescentes par le fluorophore S107, S108 ou S109 libéré est réalisée sous lampe UV à une longueur d'onde d'excitation de 365nm, compatible avec les dispositifs commercialisés. L'émission fluorescente impressionne un papier film 35mm Kodak® Ektar® 1000/30° pour un temps d'exposition au 1/60ème de seconde-process C-41.

Series [3] relates to Escherichia coli. The description is as above. The series is classed as cell-based. The conditions noted are these: Gram -, substrate in agar 10 to 300 µg/ml, pH 7, overnight at 37°C, UV 365 nm.
Description: as §5, §6, §1, §2, §3, §4, §7

A short description of series [4]: Diffusion of the released dye in the agar. The following applies: in the agar (gélose). The series is classed as physicochemical. How it is done:
as §1, §3
La révélation des bactéries Gram(-), rendues fluorescentes par le fluorophore S107, S108 ou S109 libéré est réalisée sous lampe UV à une longueur d'onde d'excitation de 365nm, compatible avec les dispositifs commercialisés. […]
Les colorants ne diffusent pas dans la gélose, de sorte que la fluorescence n'est émise que par les colonies bactériennes au site de leur croissance. Egalement, les réactions positives (fluorescence claire, lumineuse intense, des colonies Gram négatives sur un fond translucide, estompé bleu/vert pâle, fluorescence d'intensité plus faible pour les bactéries Gram positives) s'observent dès les concentrations faibles à 10µg/ml, ce qui confirme l'utilité de la nature hydrophobe des substrats, de l'absence de diffusion qui en découle et donc de l'efficacité des substrats préparés.

Series [5] deals with bactéries Gram(+) et Gram(-). Briefly: Differentiation of Gram(+) and Gram(-) bacteria with fluorogenic substrates incorporated in agar. The following applies: in agreement with Gram staining. The series is classed as cell-based.
Description: Exemple 22. Cet exemple illustre l'utilisation des dérivés de coumarines des exemples 13, 14 et 15 pour La différenciation des bactéries Gram(+) et Gram(-)par incorporation de ces dérivés de coumarines et révélation des colonies fluorescentes.
as §5, §6
Tous les substrats (composés 10c, 10d et […]) sont incorporés à la gélose à différentes concentrations couvrant une gamme de 10 à 300µg/ml. […]

`CCCCCCCCCc1cc(=O)oc2cc(NC(=O)[C@H](C)N)ccc12` [S107]: the Toxicité result in series [1] was “faible; also recorded: non toxiques; also recorded: Toxicité partielle à forte concentration”. Moreover, the “Test gélose aux substrats (fluorescence)” value is given as “Fluorescence très faible” in series [2] and “Fluorescence moyenne” in series [3]. Moreover, the Diffusion entry in series [4] is reported as “non diffusibles; also recorded: Diffusion nulle”.
Take `CCCCCCc1cc(=O)oc2cc(NC(=O)[C@H](C)N)ccc12` [S108]: the Toxicité result in series [1] was “non toxiques; also recorded: Toxicité nulle”. Further, the “discrimination des bactéries Gram négatives des bactéries Gram positives” value in series [5] is recorded as “très efficaces”. Moreover, the “Test gélose aux substrats (fluorescence)” value in series [2] is given as “Fluorescence faible”; in series [3], “Fluorescence très importante”. Further, the Diffusion result in series [4] is recorded as “non diffusibles; also recorded: Diffusion nulle”.

Source of the values: EP0693064B1, “HYDROPHOBIC AMINOCOUMARIN DERIVATIVES AND THEIR USE AS PROTEOLYTIC ENZYME SUBSTRATES OR IN THE PREPARATION OF SUCH SUBSTRATES” (priority 1993, dated 1994).
